According to the NIST ThermoML archive (doi:10.1021/je900034d):
Numbers after ± are expanded uncertainties.

Assays:
[1] = Molar enthalpy of transition or fusion; conditions: Crystal; DSC
[2] = Crystal; DTA

Row | Molar enthalpy of transition or fusion [1] [kcal/mol] | Normal melting temperature [2] [°C] | Structure (SMILES)
1 | 4.49 ± 0.167 | 61.0 ± 0.5 | c1ccc(-c2ccncn2)cc1 [4-phenylpyrimidine]
2 | 5.21 ± 0.263 | 172.4 ± 0.5 | c1cnc2ccc3ncccc3c2c1 [4,7-phenanthroline]
3 | 4.16 ± 0.215 | 59.7 ± 0.5 | c1ccc(-c2ccncc2)nc1 [2,4'-bipyridine]
4 | 3.85 ± 0.478 | 104.4 ± 0.5 | c1cc(-c2ccncc2)ccn1 [γ,γ'-bipyridyl]

Row | Structure (SMILES) | Molar enthalpy of transition or fusion [1] [kcal/mol] | Normal melting temperature [2] [°C]
5 | c1cnc2c(c1)ccc1ncccc12 [1,5-diazaphenanthrene] | 4.35 ± 0.167 | 77.2 ± 0.5
